The results in this text go back to ChEMBL document CHEMBL1122114.

The target in assay [1] is Dihydrofolate reductase (Lactobacillus casei) (UniProt P00381). The following applies: Lacticaseibacillus casei.
Description: Concentration of inhibitor required to decrease binding of [3H]MTX radioligand to Lactobacillus casei dihydrofolate reductase by 50%.
The target is the same in assay [2]. Conditions: Lacticaseibacillus casei. This is another data set of the same source.
Description: Tested for 50% reversible inhibition of Lactobacillus casei dihydrofolate reductase (spectrophotometric assay).
For assay [3], the target named is T1, Dihydrofolate reductase (Mus musculus) (UniProt P00375).
T1 sequence (whole entry): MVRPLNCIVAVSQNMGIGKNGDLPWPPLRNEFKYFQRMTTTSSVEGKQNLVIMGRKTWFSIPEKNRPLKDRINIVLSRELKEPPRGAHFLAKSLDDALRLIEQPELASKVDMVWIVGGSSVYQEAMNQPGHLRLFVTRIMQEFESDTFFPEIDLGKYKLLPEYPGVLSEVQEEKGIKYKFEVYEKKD
The following applies: L1210.
Description: Concentration of inhibitor to decrease binding of [3H]MTX radioligand to Dihydrofolate reductase from L1210 cells by 50%.

Dihydrofolate reductase (Lactobacillus casei), sequence (P00381 whole entry): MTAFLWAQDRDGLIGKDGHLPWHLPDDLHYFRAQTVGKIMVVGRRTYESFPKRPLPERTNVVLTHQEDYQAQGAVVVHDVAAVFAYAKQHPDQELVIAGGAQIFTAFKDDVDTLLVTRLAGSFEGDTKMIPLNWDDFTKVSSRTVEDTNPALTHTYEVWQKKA

With `CN(Cc1cnc2nc(N)nc(N)c2n1)c1ccc(C(=O)NC(CCCCNC(=O)CI)C(=O)O)cc1` (centres undefined), the ID50 worked out at 31 nM in assay [1], 4.5 nM in assay [2] and 9.8 nM in assay [3].

With `CN(Cc1cnc2nc(N)nc(N)c2n1)c1ccc(C(=O)NC(CCCCN)C(=O)O)cc1` (centres undefined), the ID50 in assay [1] was 122 nM; in assay [2], 23 nM; in assay [3], 11 nM.

As to `CN(Cc1cnc2nc(N)nc(N)c2n1)c1ccc(C(=O)NC(CCCCNC(=O)OCc2ccccc2)C(=O)O)cc1` (centres undefined), the figures for the ID50 in assay [1], in assay [2] and in assay [3] were 45 nM, 14 nM and 11 nM, respectively.
